The source of these data is patent publication US8664276B2, “Stilbene analogs and methods of treating cancer” (University of Kentucky Research Foundation, priority 2011, dated 2014).

The target of one test is MAT2A (Homo sapiens, UniProt P31153). Nature of the test: Streptavidin bead pull-down binding assay, GST-MAT2A. Further details: GST (N); made in house. The conditions noted are these: recombinant protein from E. coli. As to the method:
(§1) MAT2A and MAT2B were cloned into pGEX6p3 vector. The constructs were transfected into E. coli BL21. The GST-fusion proteins were induced by IPTG and purified by glutathione beads as described previously (See Liu, beta-Trcp couples beta-catenin phosphorylation-degradation and regulates Xenopus axis formation. Proc Natl Acad Sci USA 1999, 96, 6273-8). For the binding assay, purified proteins were incubated with streptavidin beads and biotinylated FlDAS 13 described above. Eluted proteins were analyzed by western blot with antibodies against GST, MAT2A or MAT2B.
(§2) Since MAT2A and MAT2B bind each other and form a complex, to determine which subunit directly interacts with FIDAS reagents, recombinant MAT2A and MAT2B were purified and tested for interaction with FIDAS. Briefly, GST-MAT2A and GST-MAT2B fusion proteins were expressed and purified from E. coli. These proteins were incubated with streptavidin beads with or without biotinylated derivative 13 (FIG. 9A). The binding proteins were eluted by 2.5 mM D-biotin and analyzed by Western blot with an anti-GST-Ab.

Another test deals with T1, MAT2B (Homo sapiens, UniProt Q9NZL9).
T1 construct: made in house; host or cells: E. coli BL21
T1 sequence (Q9NZL9 1-334): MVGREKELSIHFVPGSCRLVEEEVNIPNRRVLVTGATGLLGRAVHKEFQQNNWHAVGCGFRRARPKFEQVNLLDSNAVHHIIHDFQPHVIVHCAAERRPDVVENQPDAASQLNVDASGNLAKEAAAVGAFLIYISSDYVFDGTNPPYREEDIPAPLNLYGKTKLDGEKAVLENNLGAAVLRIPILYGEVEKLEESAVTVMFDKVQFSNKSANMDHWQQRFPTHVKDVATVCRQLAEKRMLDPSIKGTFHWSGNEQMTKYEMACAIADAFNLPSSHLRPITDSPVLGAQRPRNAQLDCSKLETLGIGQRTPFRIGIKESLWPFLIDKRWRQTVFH
Nature of the test: Streptavidin bead pull-down binding assay, GST-MAT2B. The conditions noted are these: recombinant protein from E. coli. How it is done:
as §1, §2

For another test, the target named is T2, MAT2A-K265L (Homo sapiens, UniProt P31153, K265L).
T2 construct: made in house
Nature of the test: In vitro binding assay, mutant MAT2A (K265L). The note with it: lysine 265 mutated to leucine. An excerpt: To test if the halogenated stilbene analogs of the present disclosure also bind MAT1A, a His-tagged MAT1A was cloned in and purified from E. coli. […] According to published MAT structures, several key residues are involved in substrate binding and catalysis. Among these key residues, lysine 265 is conserved between MAT1A and MAT2A and among different species. […] Taken together, the FlDAS reagents are specific inhibitors of MAT2A, and are promising drug candidates for multiple cancers as well as metabolic diseases.

T2 sequence (P31153 whole entry K265L): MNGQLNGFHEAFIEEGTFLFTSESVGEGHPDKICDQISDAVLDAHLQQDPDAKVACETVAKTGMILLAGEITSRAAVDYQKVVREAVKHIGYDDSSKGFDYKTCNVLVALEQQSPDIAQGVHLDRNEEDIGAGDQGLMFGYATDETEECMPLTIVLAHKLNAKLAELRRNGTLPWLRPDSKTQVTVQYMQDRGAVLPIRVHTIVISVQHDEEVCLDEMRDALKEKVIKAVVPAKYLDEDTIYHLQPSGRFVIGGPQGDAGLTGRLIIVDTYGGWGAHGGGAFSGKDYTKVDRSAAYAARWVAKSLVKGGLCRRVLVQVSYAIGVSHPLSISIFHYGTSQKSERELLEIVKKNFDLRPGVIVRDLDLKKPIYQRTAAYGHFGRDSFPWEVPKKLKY
Sequence of MAT2A (P31153 whole entry, the tested form may be a part): as the sequence (P31153 whole entry K265L) above, with L265K counted along it

As for `CN(CC(=O)NCCOCCOCCNC(=O)CCCCC1SCC2NC(=O)NC21)c1ccc(C=Cc2c(F)cccc2F)cc1` (stereo not drawn) [compound 13, N-(2-(4-(2,6-Difluorostyryl)phenyl)-4-oxo-8,11-dioxa-2,5-diazamidecan-13-yl)-5-(2-oxohexahydro-1H-thieno[3,4-d]imidazol-4-yl)pentanamide], the “binding to MAT2A” value on MAT2A was “directly binds”. Also, on MAT2B, the “binding to MAT2B” value was “indirectly through MAT2A”. For the same compound, the “binding to mutant MAT2A (K265L)” value at MAT2A-K265L is “significantly decreased”.
